Patent US8618299B2, “Azinone-substituted azapolycycle MCH-1 antagonists, methods of making, and use thereof” (Albany Molecular Research, Inc., priority 2009, dated 2013)
Where a name gives a salt, the structure may show the parent alone.

Assays:
human MCH-1 receptor = human MCH-1 receptor (Homo sapiens (Human), UniProt Q99705); assay: Binding assay for human melanin-concentrating hormone (MCH1) receptor; settings: membranes from CHO-K1 cells expressing human MCH1 receptor, 1.4 nM [3H]-labeled radioligand, 60 min at 25° C., pH 7.4, Ki from Cheng Prusoff equation
Procedure: Binding Assay for Human Melanin-Concentrating Hormone (MCH1) Receptor
Evaluation of the affinity of compounds for the human MCH-1 receptor was accomplished using 4-(3,4,5-tritritiumbenzyloxy)-1-(1-(2-(pyrrolidin-1-yl)ethyl)-1H-indazol-5-yl)pyridin-2(1H)-one and membranes prepared from stable CHO-K1 cells expressing the human MCH1 receptor obtained from Euroscreen (Batch 1138). Cell membrane homogenates (8.92 μg protein) were incubated for 60 min at 25° C. with 1.4 nM of the [^3H]-labeled compound in the absence or presence of the test compound in 50 mM Tris-HCl buffer, pH 7.4. Nonspecific binding was determined in the presence of 50 μM 1-(5-(4-cyanophenyl)bicyclo[3.1.0]hexan-2-yl)-3-(4-fluoro-3-(trifluoromethyl)phenyl)-1-(3-(4-methylpiperazin-1-yl)propyl)urea. Following incubation, the samples were filtered rapidly under vacuum through Skatron 11731 filters, pre-soaked in 0.5% polyethylenimine, and washed with ice-cold 50 mM Tris-HCl buffer, pH 7.4, (wash setting 9,9,0) using a Skatron cell harvester. The filters were counted for radioactivity in a liquid scintillation counter (Tri-Carb 2100TR, Packard) using a scintillation cocktail (Ultima Gold MV, Perkin Elmer).
The results are expressed as a percent inhibition of the control radioligand specific binding. The IC50 value (concentration causing a half-maximal inhibition of control specific binding) and Hill coefficient (nH) were determined by non-linear regression analysis of the competition curve using Hill equation curve fitting. The inhibition constant (Ki) was calculated from the Cheng Prusoff equation: (Ki=IC50/(1+(L/KD)), where L=concentration of radioligand in the assay, and KD=affinity of the radioligand for the receptor.

human MCH-1 receptor, sequence (Q99705 whole entry): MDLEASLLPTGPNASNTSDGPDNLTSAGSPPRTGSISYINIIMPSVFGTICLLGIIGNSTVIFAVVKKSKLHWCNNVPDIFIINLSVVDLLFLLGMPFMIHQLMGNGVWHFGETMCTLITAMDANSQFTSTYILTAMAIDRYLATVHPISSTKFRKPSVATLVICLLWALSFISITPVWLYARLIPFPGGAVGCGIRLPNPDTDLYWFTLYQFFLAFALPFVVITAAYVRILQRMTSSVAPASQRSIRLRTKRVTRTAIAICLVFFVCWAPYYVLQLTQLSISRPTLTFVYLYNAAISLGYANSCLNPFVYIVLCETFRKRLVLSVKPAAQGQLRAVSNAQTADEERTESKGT

Structure (SMILES)	Ki (human MCH-1 receptor)	melting point	Ki (human MCH-1 receptor; Hydrochloride)
Cl.Cn1c2c(c3ccc(-n4ccc(OCc5ccccc5)cc4=O)cc31)C1CCCCN1CC2 (stereo not drawn) [Example 22, 4-(Benzyloxy)-1-(8-methyl-1,2,3,4,6,7,8,12c-octahydroindolo[3,2-a]quinolizin-10-yl)pyridin-2(1H)-one Hydrochloride]	0.021 µM	250 to 253 °C	
Cl.Cn1c2c(c3ccc(-n4ccc(OCc5ccccc5)cc4=O)nc31)C1CCCN1CC2 (stereo not drawn) [Example 44, 4-(Benzyloxy)-1-(7-methyl-2,3,5,6,7,11c-hexahydro-1H-pyrido[3′,2′:4,5]pyrrolo[2,3-g]indolizin-9-yl)pyridin-2(1H)-one Hydrochloride]	0.012 µM	130 to 140 °C	
Cl.Cn1c2c(c3ccc(-n4ccc(OCc5ccccc5)cc4=O)nc31)CN1CCCC1C2 (stereo not drawn) [Example 50, 4-(Benzyloxy)-1-(11-methyl-5,7,8,9,9a,10-hexahydro-11H-pyrido[3′,2′:4,5]pyrrolo[3,2-f]indolizin-2-yl)pyridin-2(1H)-one Hydrochloride]	0.016 µM	240 to 250 °C	
Cl.Cn1c2c(c3ccc(-n4ccc(-c5ccc(Cl)cn5)cc4=O)cc31)CCN1CCCCC21 (stereo not drawn) [Example 9, 4-(5-Chloropyridin-2-yl)-1-(12-methyl-1,2,3,4,6,7,12,12b-octahydroindolo[2,3-a]quinolizin-10-yl)pyridin-2(1H)-one Hydrochloride]	1.75 µM	210 to 213 °C	
Cl.Cn1c2c(c3ccc(-n4ccc(OCc5ccc(F)cn5)cc4=O)cc31)CCN1CCCCC21 (stereo not drawn) [Example 7, 4-((5-Fluoropyridin-2-yl)methoxy)-1-(12-methyl-1,2,3,4,6,7,12,12b-octahydroindolo[2,3-a]quinolizin-10-yl)pyridin-2(1H)-one Hydrochloride]	0.045 µM	200 °C (dec.)	
Cl.Cn1c2c(c3ccc(-n4ccc(OCc5ccc(F)cc5F)cc4=O)nc31)C1CCCN1CC2 (stereo not drawn) [Example 46, 4-(2,4-Difluorobenzyloxy)-1-(7-methyl-2,3,5,6,7,11c-hexahydro-1H-pyrido[3′,2′:4,5]pyrrolo[2,3-g]indolizin-9-yl)pyridin-2(1H)-one Hydrochloride]	0.016 µM	134 to 145 °C	
Cl.Cn1c2c(c3ccc(-n4ccc(-c5ccc(C(F)(F)F)cn5)cc4=O)cc31)CCN1CCCCC21 (stereo not drawn) [Example 6, 1-(12-Methyl-1,2,3,4,6,7,12,12b-octahydroindolo[2,3-a]quinolizin-10-yl)-4-(5-(trifluoromethyl)pyridin-2-yl)pyridin-2(1H)-one Hydrochloride]	0.481 µM	280 to 284 °C	
Cl.Cn1c2c(c3ccc(-n4ccc(OCc5ccc(Cl)cc5F)cc4=O)nc31)CN1CCCC1C2 (stereo not drawn) [Example 54, 4-(4-Chloro-2-fluorobenzyloxy)-1-(11-methyl-5,7,8,9,9a,10-hexahydro-11H-pyrido[3′,2′:4,5]pyrrolo[3,2-f]indolizin-2-yl)pyridin-2(1H)-one Hydrochloride]	0.026 µM	210 to 220 °C	
Cc1ccc(COc2ccn(-c3ccc4c5c(n(C)c4c3)CC3CCCN3C5)c(=O)c2)cn1 (stereo not drawn) (as salt: hydrochloride) [Example 31, 1-(10-Methyl-2,3,5,10,11,11a-hexahydro-1H-indolizino[7,6-b]indol-8-yl)-4-((6-methylpyridin-3-yl)methoxy)pyridin-2(1H)-one Hydrochloride]		260 to 263 °C	
Cc1ccc(COc2ccn(-c3ccc4c5c(n(C)c4c3)CC3CCCCN3C5)c(=O)c2)cn1 (stereo not drawn) (as salt: hydrochloride) [Example 33, 1-(5-Methyl-5,6,6a,7,8,9,10,12-octahydroindolo[2,3-b]quinolizin-3-yl)-4-((6-methylpyridin-3-yl)methoxy)pyridin-2(1H)-one Dihydrochloride]		270 to 272 °C	

More lines, now with the values ahead:

Ki (human MCH-1 receptor)	melting point	Ki (human MCH-1 receptor; Hydrochloride)	Structure (SMILES)
0.153 µM	235 to 240 °C		Cl.Cn1c2c(c3ccc(-n4ccc(-c5ccc(C(F)(F)F)nc5)cc4=O)cc31)C1CCCN1CC2 (stereo not drawn) [Example 14, 1-(7-Methyl-2,3,5,6,7,11c-hexahydro-1H-indolizino[7,8-b]indol-9-yl)-4-(6-(trifluoromethyl)pyridin-3-yl)pyridin-2(1H)-one Hydrochloride]
0.0085 µM	275 to 285 °C		Cl.O=c1cc(-c2ccc(C(F)(F)F)cc2)ccn1-c1ccc2c3c([nH]c2c1)CC1CCCN1C3 (stereo not drawn) [Example 39, 1-(2,3,5,10,11,11a-Hexahydro-1H-indolizino[7,6-b]indol-8-yl)-4-(4-(trifluoromethyl)phenyl)pyridin-2(1H)-one Hydrochloride]
0.014 µM	275 to 285 °C		Cl.O=c1cc(-c2ccc(C(F)(F)F)nc2)ccn1-c1ccc2c3c([nH]c2c1)CC1CCCN1C3 (stereo not drawn) [Example 41, 1-(2,3,5,10,11,11a-Hexahydro-1H-indolizino[7,6-b]indol-8-yl)-4-(6-(trifluoromethyl)pyridin-3-yl)pyridin-2(1H)-one Hydrochloride]
0.007 µM	245 to 248 °C		Cl.Cn1c2c(c3ccc(-n4ccc(-c5ccc(C(F)(F)F)nc5)cc4=O)cc31)CN1CCCCC1C2 (stereo not drawn) [Example 36, 1-(5-Methyl-5,6,6a,7,8,9,10,12-octahydroindolo[2,3-b]quinolizin-3-yl)-4-(6-(trifluoromethyl)pyridin-3-yl)pyridin-2(1H)-one Hydrochloride]
0.017 µM	300 to 305 °C		Cl.Cn1c2c(c3ccc(-n4ccc(-c5ccc(C(F)(F)F)cc5)cc4=O)nc31)CN1CCCC1C2 (stereo not drawn) [Example 52, 1-(11-Methyl-5,7,8,9,9a,10-hexahydro-11H-pyrido[3′,2′:4,5]pyrrolo[3,2-f]indolizin-2-yl)-4-(4-(trifluoromethyl)phenyl)pyridin-2(1H)-one Hydrochloride]
	167 to 170 °C	0.0149 µM	Cl.Cn1c2c(c3ccc(-n4ccc(OCc5ccccc5)cc4=O)cc31)CCN1CCCC21 (stereo not drawn) [Example 2, 4-(Benzyloxy)-1-(11-methyl-2,3,5,6,11,11b-hexahydro-1H-indolizino[8,7-b]indol-9-yl)pyridin-2(1H)-one Hydrochloride]
0.012 µM	280 to 290 °C		Cl.O=c1cc(-c2ccc(C(F)(F)F)cc2)ccn1-c1ccc2c3c([nH]c2c1)CCN1CCCC31 (stereo not drawn) [Example 26, 1-(2,3,5,6,7,11c-Hexahydro-1H-indolizino[7,8-b]indol-9-yl)-4-(4-(trifluoromethyl)phenyl)pyridin-2(1H)-one Hydrochloride]
	224 to 228 °C	0.0173 µM	Cl.Cn1c2c(c3ccc(-n4ccc(OCc5ccccc5)cc4=O)cc31)CCN1CCCC21 (single isomer, unassigned; (-)) [Example 3, (−)4-(Benzyloxy)-1-(11-methyl-2,3,5,6,11,11b-hexahydro-1H-indolizino[8,7-b]indol-9-yl)pyridin-2(1H)-one Hydrochloride]
0.015 µM	190 to 200 °C		Cl.Cn1c2c(c3ccc(-n4ccc(-c5ccc(C(F)(F)F)cc5)cc4=O)nc31)C1CCCN1CC2 (stereo not drawn) [Example 49, 1-(7-Methyl-2,3,5,6,7,11c-hexahydro-1H-pyrido[3′,2′:4,5]pyrrolo[2,3-g]indolizin-9-yl)-4-(4-(trifluoromethyl)phenyl)pyridin-2(1H)-one Hydrochloride]
0.012 µM	210 to 220 °C		Cl.O=c1cc(OCc2ccc(F)cc2F)ccn1-c1ccc2c3c([nH]c2c1)CCN1CCCC31 (stereo not drawn) [Example 28, 4-(2,4-difluorobenzyloxy)-1-(2,3,5,6,7,11c-hexahydro-1H-indolizino[7,8-b]indol-9-yl)pyridin-2(1H)-one Hydrochloride]
0.0083 µM	290 to 293 °C		Cl.Cn1c2c(c3ccc(-n4ccc(-c5ccc(C(F)(F)F)nc5)cc4=O)cc31)CN1CCCC1C2 (stereo not drawn) [Example 30, 1-(10-Methyl-2,3,5,10,11,11a-hexahydro-1H-indolizino[7,6-b]indol-8-yl)-4-(6-(trifluoromethyl)pyridin-3-yl)pyridin-2(1H)-one Hydrochloride]
	210 to 214 °C		Cc1ccc(COc2ccn(-c3ccc4c5c(n(C)c4c3)CCN3CCCCC53)c(=O)c2)cn1 (stereo not drawn) (as salt: hydrochloride) [Example 23, 1-(8-Methyl-1,2,3,4,6,7,8,12c-octahydroindolo[3,2-a]quinolizin-10-yl)-4-((6-methylpyridin-3-yl)methoxy)pyridin-2(1H)-one Dihydrochloride]
	256 to 260 °C		Cc1ccc(-c2ccn(-c3ccc4c5c(n(C)c4c3)CC3CCCCN3C5)c(=O)c2)cn1 (stereo not drawn) (as salt: hydrochloride) [Example 35, 1-(5-Methyl-5,6,6a,7,8,9,10,12-octahydroindolo[2,3-b]quinolizin-3-yl)-4-(6-methylpyridin-3-yl)pyridin-2(1H)-one Dihydrochloride]
